Data on eight molecules can be found in PMC9067978, “Design, synthesis, and molecular docking studies of novel pomalidomide-based PROTACs as potential anti-cancer agents targeting EGFR^WT and EGFR^T790M” (Journal of Enzyme Inhibition and Medicinal Chemistry, 2022).

The subject of assay [1] is A549. Kind of assay: MTT anti-proliferative assay, A549. The conditions noted are these: Homo sapiens, A549, read-out: IC50 A549.
Method: (§5) The anti-proliferative activity was quantified in the following way. At a density of 3–8 × 10^3 cells per well, human cancer cell lines were introduced to 96-well plates. The wells were then incubated at 37 °C for 12 hours in 5% CO2 incubator. To determine the DMSO content, the culture media was swapped with 0.1 ml of fresh medium containing graded amounts of the test compounds for each well. Incubation time for the wells was two days. The cells were then cultured in 100 µl MTT solution (5 µg ml^−1) for another 4 hours in each well.
(§6) The absorbance of each well was measured at 490 nm with an automated ELISA reader system (TECAN, CHE) after MTT-formazan crystals were dissolved in 100 µl of DMSO. The IC50 values were calculated using nonlinear regression fitting models (Graph Pad, Prism Version 5). The results were expressed as means ± SD and were based on the average of three separate, duplicate trials.
Assay [2] has as its system HCT-116. Kind of assay: MTT anti-proliferative assay, HCT-116. As to conditions: Homo sapiens, HCT-116, read-out: IC50 HCT-116.
Method: as §5, §6
Assay [3] relates to MCF-7. Kind of assay: MTT anti-proliferative assay, MCF-7. As to conditions: Homo sapiens, MCF7, read-out: IC50 MCF-7.
Method: as §5, §6
Assay [4] relates to HepG-2. Kind of assay: MTT anti-proliferative assay, HepG-2. As to conditions: Homo sapiens, HepG2, read-out: IC50 HepG-2.
Method: as §5, §6
Assay [5] has as its target T1, EGFR^WT (Homo sapiens, UniProt P00533).
T1 construct: purchased Sigma
Kind of assay: EGFR^WT kinase inhibitory assay (HTRF). Type of assay: biochemical. The conditions noted are these: ATP 1.65 µM, mean ± S.D of three experiments. How it is done:
(§1) This test used HTRF[44] assay with EGFR^WT and EGFR^T790M (Sigma). For the first 5 minutes, the evaluated compounds were incubated with EGFR^WT and/or EGFR^T790M and their substrates in the enzymatic buffer. […] The assay was performed at 37 °C for 30 minutes. The addition of EDTA-containing detection reagents halted the process. After one hour detection period, GraphPad Prism 5.0 was used to calculate the IC50 values. For each concentration, three separate trials were carried out.

Assay [6] deals with T2, EGFR^T790M (Homo sapiens, UniProt P00533, T790M).
T2 construct: purchased Sigma
The experiment in a line: EGFR^T790M kinase inhibitory assay (HTRF). Type of assay: biochemical. The conditions noted are these: ATP 1.65 µM, mean ± S.D of three experiments, read-out: EGFR^790M IC50. How it is done:
as §1

In assay [7] the test system is Akt phosphorylation. The experiment in a line: Western blotting, Akt phosphorylation in A549 cells. The conditions noted are these: A549 cells, 0.1, 0.3 and 1 µM, erlotinib for comparison. It counts as cell-based, human. How it is done: (§2) At a concentration of 100 nM, the time-dependent degradation activities of compounds 15–21 were also examined (Figure 5(A)).
(§3) Figure 5. (A) EGFR time-dependent degradation by compound 16 in A549 cell lines. Cells were treated with100 nM of 15–21 for indicated time points. Western blotting was used to evaluate EGFR protein, and densitometry was used to measure EGFR degradation, which was adjusted to the density of β-actin protein (n ¼2). (B) Compounds 15 and 16 have EGFR degradation and phosphorylation inhibitory action in A549 cells. The cells were exposed to concentrations of 0.1, 0.3, and 1 µM. Erlotinib were utilised for comparison. […]
(§4) Cells were seeded in 6-well plates at 1 × 10^6 per well, incubated at 37 °C with 5% CO2 for 24 h before drug exposure. […] The results were detected by an enhanced chemiluminescence system (Mill-pore). […]

For assay [8], the system named is EGFR phosphorylation. The experiment in a line: Western blotting, EGFR phosphorylation in A549 cells. Type of assay: cell-based, human. The conditions noted are these: A549 cells, 0.1, 0.3 and 1 µM, erlotinib for comparison. As for the experimental part:
as §2, §3, §4

Assay [9] addresses T3, EGFR (Homo sapiens, UniProt P00533).
T3 construct: EGFR degradation activities of compounds in A549 cells; endogenous in cells; host or cells: A549
Kind of assay: Western blotting, EGFR degradation in A549 cells. Type of assay: cell-based. As for the experimental part:
Following this, the target compounds 15–21 tethering various E3 ligases ligand were chosen as representative PROTACs for further degradation study based on temporal data.
Figure 4. (A) EGFR degradation activities of compounds in A549 cells. Cells were treated for 48 h with concentration of 0.1 and 1 µM. (B) Effects of concentration-dependent EGFR degradation by compounds 15–21 in A549 cell lines. Cells were treated for 48 h with a concentration from 1 nM to 10 µM. EGFR protein was examined by Western blotting analysis and EGFR degradation rate was quantified by densitometry and normalised to the corresponding density of β-actin protein (n ¼ 3). TEXT PRINTED IN THE PICTURE: (B) Comp 15: DC50 = 43.4 nm | (B) Comp 16: DC50= 32.9 nm DOUBTS OF THE COPYIST ABOUT THIS PICTURE: Comp 15, DC50: 43.4 is small blurred print; the 3 could be 8 and the digits are not certain / Comp 16, DC50: 32.9 is small blurred print; the 3 could be 8 and the 9 could be 8 or 0
We set nine concentration gradients ranging from […] to 10 µM to determine the degradation activity of all tested compounds and calculated the DC50 (concentration that caused deletion of 50% of EGFR) values.
as §2
Figure 5. (A) EGFR time-dependent degradation by compound 16 in A549 cell lines. Cells were treated with100 nM of 15–21 for indicated time points. Western blotting was used to evaluate EGFR protein, and densitometry was used to measure EGFR degradation, which was adjusted to the density of β-actin protein (n ¼2). (B) Compounds 15 and 16 have EGFR degradation and phosphorylation inhibitory action in A549 cells. The cells were exposed to concentrations of 0.1, 0.3, and 1 µM. Erlotinib were utilised for comparison. TEXT PRINTED IN THE PICTURE: (A) Comp 15: Dmax = 85 % @ 96 h; Degradation: 9 (4 h; 100 nM); Degradation: 22 (8 h; 100 nM); Degradation: 42 (12 h; 100 nM); Degradation: 83 (24 h; 100 nM); Degradation: 84 (36 h; 100 nM); Degradation: 82 (48 h; 100 nM); Degradation: 82 (72 h; 100 nM); Degradation: 85 (96 h; 100 nM) | (A) Comp 16: Dmax = 96 % @72 h; Degradation: 32 (4 h; 100 nM); Degradation: 43 (8 h; 100 nM); Degradation: 67 (12 h; 100 nM); Degradation: 69 (24 h; 100 nM); Degradation: 78 (36 h; 100 nM); Degradation: 85 (48 h; 100 nM); Degradation: 96 (72 h; 100 nM); Degradation: 94 (96 h; 100 nM) DOUBTS OF THE COPYIST ABOUT THIS PICTURE: Comp 15, Dmax: print is blurred, 85 % @ 96 h is the best reading (85 or 86) / Comp 16, Dmax: print is small and blurred, 96 % @72 h is the best reading (96 or 95; the % sign is unclear) / Comp 15, Degradation row: print is blurred, 83/84/82/82/85 are best readings (3, 5, 8 are hard to tell apart) / Comp 16, Degradation row: print is blurred, 67/69/78/85/96/94 are best readings (5, 6, 8, 9 are hard to tell apart) / The Degradation rows are printed under the blot lanes with no unit. The value 0 under the 0.1 % DMSO control lane was not assigned to any compound.
Cells were seeded in 6-well plates at 1 × 10^6 per well, incubated at 37 °C with 5% CO2 for 24 h before drug exposure. Cells were treated with different concentrations of synthesised compounds for […], then collected and suspended in lysis buffer (Beyotime) and centrifuged for 20 min at 12000 rpm, later removed the insoluble material. […] The results were detected by an enhanced chemiluminescence system (Mill-pore). […]

SMILES strings stand for the structures. “Also recorded” adds a separate entry of the source.

T2 sequence (P00533 25-1210 T790M): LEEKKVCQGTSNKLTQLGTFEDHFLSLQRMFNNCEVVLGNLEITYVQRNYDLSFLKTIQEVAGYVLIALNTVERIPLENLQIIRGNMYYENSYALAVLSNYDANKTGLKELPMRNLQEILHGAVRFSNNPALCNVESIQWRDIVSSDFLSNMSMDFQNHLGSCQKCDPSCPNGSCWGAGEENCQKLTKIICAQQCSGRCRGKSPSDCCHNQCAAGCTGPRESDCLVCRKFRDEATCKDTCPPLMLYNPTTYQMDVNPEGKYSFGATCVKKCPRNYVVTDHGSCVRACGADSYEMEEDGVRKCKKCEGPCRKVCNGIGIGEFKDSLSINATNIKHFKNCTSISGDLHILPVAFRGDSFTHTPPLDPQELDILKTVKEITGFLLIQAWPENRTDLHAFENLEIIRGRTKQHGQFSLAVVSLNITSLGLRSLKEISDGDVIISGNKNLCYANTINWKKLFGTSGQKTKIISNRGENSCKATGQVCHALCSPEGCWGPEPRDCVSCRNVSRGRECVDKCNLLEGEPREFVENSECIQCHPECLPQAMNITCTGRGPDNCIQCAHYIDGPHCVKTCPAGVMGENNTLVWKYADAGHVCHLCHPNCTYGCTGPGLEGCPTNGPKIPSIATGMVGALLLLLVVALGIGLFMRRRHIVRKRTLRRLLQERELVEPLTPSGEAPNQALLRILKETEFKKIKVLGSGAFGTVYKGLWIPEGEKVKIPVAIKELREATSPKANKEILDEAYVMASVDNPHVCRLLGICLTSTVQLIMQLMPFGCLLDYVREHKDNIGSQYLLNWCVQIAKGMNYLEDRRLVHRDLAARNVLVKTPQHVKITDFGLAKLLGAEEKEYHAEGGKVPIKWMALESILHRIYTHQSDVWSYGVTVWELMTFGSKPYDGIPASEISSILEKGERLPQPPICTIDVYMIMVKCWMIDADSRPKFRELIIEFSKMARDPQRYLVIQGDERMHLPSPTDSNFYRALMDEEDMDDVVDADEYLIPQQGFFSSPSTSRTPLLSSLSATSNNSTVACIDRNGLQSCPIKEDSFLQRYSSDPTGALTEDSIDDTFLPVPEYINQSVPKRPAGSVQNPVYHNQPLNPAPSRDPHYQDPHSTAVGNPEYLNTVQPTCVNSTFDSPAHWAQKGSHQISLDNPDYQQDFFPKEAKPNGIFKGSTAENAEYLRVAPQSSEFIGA
T1 sequence (P00533 25-1210): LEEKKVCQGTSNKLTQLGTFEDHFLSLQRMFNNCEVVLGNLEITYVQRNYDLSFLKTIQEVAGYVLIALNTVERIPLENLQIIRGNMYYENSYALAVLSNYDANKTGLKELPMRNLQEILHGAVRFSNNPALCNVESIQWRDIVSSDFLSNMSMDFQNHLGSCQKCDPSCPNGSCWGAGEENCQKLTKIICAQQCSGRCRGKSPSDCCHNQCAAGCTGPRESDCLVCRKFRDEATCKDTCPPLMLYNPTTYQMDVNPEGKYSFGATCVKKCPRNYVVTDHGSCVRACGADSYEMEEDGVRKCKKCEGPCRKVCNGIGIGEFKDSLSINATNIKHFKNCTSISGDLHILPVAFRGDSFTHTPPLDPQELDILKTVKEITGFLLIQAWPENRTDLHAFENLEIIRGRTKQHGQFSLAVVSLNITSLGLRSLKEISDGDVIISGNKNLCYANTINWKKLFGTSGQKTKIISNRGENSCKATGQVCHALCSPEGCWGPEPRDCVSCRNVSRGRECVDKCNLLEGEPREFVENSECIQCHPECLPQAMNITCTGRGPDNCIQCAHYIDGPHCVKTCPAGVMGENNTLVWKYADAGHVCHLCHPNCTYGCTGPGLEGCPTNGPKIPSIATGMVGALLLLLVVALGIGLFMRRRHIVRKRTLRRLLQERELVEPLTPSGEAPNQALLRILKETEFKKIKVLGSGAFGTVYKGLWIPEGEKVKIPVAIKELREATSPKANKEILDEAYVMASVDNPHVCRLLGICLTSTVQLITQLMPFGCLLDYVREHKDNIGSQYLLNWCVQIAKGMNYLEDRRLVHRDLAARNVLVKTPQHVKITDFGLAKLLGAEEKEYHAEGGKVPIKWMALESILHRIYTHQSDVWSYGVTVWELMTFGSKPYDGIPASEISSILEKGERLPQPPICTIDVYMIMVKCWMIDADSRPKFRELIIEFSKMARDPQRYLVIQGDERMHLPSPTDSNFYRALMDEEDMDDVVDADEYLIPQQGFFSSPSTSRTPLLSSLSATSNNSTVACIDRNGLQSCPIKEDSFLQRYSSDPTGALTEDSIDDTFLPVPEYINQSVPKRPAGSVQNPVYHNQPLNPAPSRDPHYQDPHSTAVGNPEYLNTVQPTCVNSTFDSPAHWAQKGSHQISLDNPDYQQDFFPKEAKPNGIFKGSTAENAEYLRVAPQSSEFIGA
T3 sequence (P00533 25-1210): as above

Consider `C#Cc1cccc(Nc2ncnc3cc(OCCOC)c(OCCOC)cc23)c1` [Erlotinib, reference compound], for which the concentration for half-maximal inhibition (IC50) came to 19.3 ± 1.85 µM in assay [1], 16.8 ± 1.65 µM in [2], 21.8 ± 1.85 µM in [3] and 13.1 ± 1.28 µM in [4].
Regarding `O=C1CCC(N2C(=O)c3cccc(NC(=O)COCCOCCNNC(=O)c4ccc(N=C5C(=O)Nc6ccccc65)cc4)c3C2=O)C(=O)N1` (centres unmarked) [Compound 18, N-(2-(2,6-dioxopiperidin-3-yl)-1,3-dioxoisoindolin-4-yl)-2-(2-(2-(2-(4-((2-oxoindolin-3-ylidene)amino)benzoyl)hydrazineyl)ethoxy)ethoxy)acetamide], the IC50 in [1] was determined as 4.67 ± 0.13 µM; in assay [2], 6.79 ± 0.27 µM; in [3] it was 8.26 ± 0.25 µM; in assay [5], 0.65 ± 0.03 µM; in [6], 8.16 ± 0.28 µM; in assay [4], 6.26 ± 0.56 µM.
Turning to `O=C1CCC(N2C(=O)c3cccc(NC(=O)COCCOCCOCCNC(=O)c4nc5ccccc5[nH]c4=O)c3C2=O)C(=O)N1` (centres unmarked) [Compound 17, N-(2-(2-(2-(2-(2-(2,6-dioxopiperidin-3-yl)-1,3-dioxoisoindolin-4-ylamino)-2-oxoethoxy)ethoxy)ethoxy)ethyl)-3-oxo-3,4-dihydroquinoxaline-2-carboxamide], the IC50 amounted to 3.19 ± 0.19 µM in [1]; 6.29 ± 0.35 µM in assay [2]; 7.96 ± 0.35 µM in assay [3]; 0.19 ± 0.09 µM in assay [5]; 6.26 ± 0.32 µM in assay [6]; 4.09 ± 0.11 µM in assay [4].
As for `O=C(CSc1nc2ccccc2o1)NNCCOCCOCC(=O)Nc1cccc2c1C(=O)N(C1CCC(=O)NC1=O)C2=O` (centres unmarked) [Compound 20, 2-(2-(2-(2-(2-(benzo[d]oxazol-2-ylthio)acetyl)hydrazinyl)ethoxy)ethoxy)-N-(2-(2,6-dioxopiperidin-3-yl)-1,3-dioxoisoindolin-4-yl)acetamide], the half-maximal inhibitory concentration (IC50) in [1] came to 8.27 ± 0.25 µM; in assay [2], 12.3 ± 0.71 µM; in [3], 14.3 ± 0.69 µM; in assay [5], 0.77 ± 0.05 µM; in assay [6] it was 16.3 ± 0.69 µM; in assay [4], 9.26 ± 0.39 µM.
In the case of `O=C1CCC(N2C(=O)c3cccc(NC(=O)COCCOCCn4nc5[nH]c6ccccc6nc-5c4=O)c3C2=O)C(=O)N1` (centres unmarked) [Compound 15, N-(2-(2,6-dioxopiperidin-3-yl)-1,3-dioxoisoindolin-4-yl)-2-(2-(2-(3-oxo-3,9-dihydro-2H-pyrazolo[3,4-b]quinoxalin-2-yl)ethoxy)ethoxy)acetamide], the IC50 was 3.09 ± 0.15 µM in assay [1]; 6.19 ± 0.27 µM in [2]; 7.87 ± 0.31 µM in [3]; 0.22 ± 0.05 µM in [5]; 6.89 ± 0.31 µM in assay [6]; 3.89 ± 0.05 µM in [4]. Besides, the “inhibition of Akt phosphorylation, in words” value in assay [7] is “effectively displayed inhibitory activity; also recorded: comparable to erlotinib”. Further, the “inhibition of EGFR phosphorylation, in words” value in [8] is recorded as “effectively displayed inhibitory activity”. The Dmax at 0.1 µM in [9] (A549, A549 cells, 100 nM, time course, reached at 96 h (15) and 72 h (16), read-out: Dmax, maximum EGFR degradation rate) is 86%. Moreover, the DC50 in [9] (A549 cells, 48 h, Western blotting densitometry, read-out: DC50 (concentration that caused deletion of 50% of EGFR)) amounted to 0.0434 µM.
For `COc1cccc2c1C(=O)c1c(O)c3c(c(O)c1C2=O)C[C@@](O)(C(=O)CO)C[C@@H]3O[C@H]1C[C@H](N)[C@H](O)[C@H](C)O1` [Doxorubicin, reference compound], the results for the IC50 in assay [2], in assay [3] and in assay [4] were 5.52 ± 0.25 µM, 7.89 ± 0.55 µM and 6.22 ± 0.45 µM, respectively.
Turning to `CN1C(=O)C(=Nc2ccc(C(=O)NNCCOCCOCC(=O)Nc3cccc4c3C(=O)N(C3CCC(=O)NC3=O)C4=O)cc2)c2ccccc21` (centres unmarked) [Compound 19, N-(2-(2,6-dioxopiperidin-3-yl)-1,3-dioxoisoindolin-4-yl)-2-(2-(2-(2-(4-(1-methyl-2-oxoindolin-3-ylideneamino)benzoyl)hydrazinyl)ethoxy)ethoxy)acetamide], the half-maximal inhibitory concentration (IC50) in [1] came to 6.54 ± 0.32 µM; in [2] it was 9.12 ± 0.38 µM; in assay [3] it was 16.3 ± 0.71 µM; in assay [5], 3.02 ± 0.12 µM; in assay [6] it was 14.1 ± 0.51 µM; in assay [4] it was 8.26 ± 0.36 µM.
Turning to `O=C(CSc1nc2ccccc2s1)NNCCOCCOCC(=O)Nc1cccc2c1C(=O)N(C1CCC(=O)NC1=O)C2=O` (centres unmarked) [Compound 21, 2-(2-(2-(2-(2-(benzo[d]thiazol-2-ylthio)acetyl)hydrazinyl)ethoxy)ethoxy)-N-(2-(2,6-dioxopiperidin-3-yl)-1,3-dioxoisoindolin-4-yl)acetamide], the concentration for half-maximal inhibition (IC50) in assay [1] worked out at 7.27 ± 0.16 µM; in [2], 13 ± 0.52 µM; in assay [3], 16.3 ± 0.71 µM; in [5], 2.27 ± 0.16 µM; in assay [6] it was 15.3 ± 0.61 µM; in [4], 9.86 ± 0.37 µM.
